Experimental data published in article PMC10410440, “Preclinical PK investigation of a novel IDO1/TDO dual inhibitor—SHR9146 in mouse plasma and tissues by LC-MS/MS” (Frontiers in Oncology, 2023).
Values joined by “and” are separate entries in the source; they are usually repeats but may differ in a detail not shown here. Equal entries are not always repeated. Where two headings read alike, the source gives them in different places.

Test: Tissue distribution of SHR9146 in mice after oral gavage of 40 mg/kg
Type: in vivo, ICR mice
Details: female, 40 mg/kg oral gavage; for concentration at 1 h / concentration at 3 h / concentration at 6 h / concentration at 24 h: ICR, mouse, po
Description: ICR mice with body weight 16–26 g were supplied by Shanghai Lingchang Biotechnology Co., Ltd. (animal breeding license number SCXK (Shanghai) 2013-0018) and housed at Shanghai Institute of Materia Medica, Chinese Academy of Sciences [animal use license number SYXK (Shanghai) 2015-0027]. The mice used in this study were fasted overnight for 12 h but had free access to water. Food was supplied 4 h post-dose. All experiments in this study were conducted in accordance with the Guidelines for the Care and Use of Laboratory Animals of Shanghai Institute of Materia Medica, Chinese Academy of Sciences.
Another set of 30 mice were randomly assigned into five groups with equal numbers, males and females, for tissue distribution study with oral gavage at a single dose of 40 mg/kg at predetermined different time points: pre-dose and post dose at 1, 3, 6, and 24 h, respectively. The whole brain, heart, liver, spleen, lung, kidney, bladder, pancreas, testis, ovary, uterus, stomach, small intestine, adrenal gland, skin, skeletal muscle, thyroid gland, and abdominal fat tissues as well as the whole blood and plasma samples were harvested. Tissue samples were washed with 0.9% sodium chloride solution to remove the residual blood or contents, blotted on a filter paper, and stored at −70°C prior to the analysis.
Protein precipitation was selected for the pretreatment of both the plasma and the tissue homogenate prepared after thawing at room temperature, cut into pieces, and homogenized with a quintuple methanol–water mixture (1:1, v/v) for each tissue sample.
Briefly as follows, an aliquot of 25-μL plasma or tissue homogenate was spiked with 100 μL of internal standard solution (1 μg/mL for plasma, 0.2 μg/mL for tissue homogenate) and 300 μL of methanol added and vortex mixed for 60 s. The mixture was then centrifuged at 14,000 rpm at 4°C for 5.0 min, and the supernatant was diluted with methanol–water (4:1, v/v) in a ratio of 1:9 for the plasma or 1:1 for the tissue homogenate, and 5 μL of the resulting solution was injected for the LC-MS/MS analysis.
After oral administration of 40 mg/kg SHR9146, samples in different tissues at predetermined time points (pre-drug administration, post-drug administration at 1, 3, 6, and 24 h) were collected and prepared for the analysis. The drug concentrations of SHR9146 (μg/g or μg/mL) were determined for each mouse, and the mean and standard deviation were further obtained (Table S7).

[1] = 24 h, individual mice, 40 mg/kg

In the case of `OCCn1cc(-c2ccc(N3CCC([C@H]4c5c(F)cccc5-c5cncn54)CC3)cc2)cn1` [SHR9146], the “SHR9146 concentration in Bladder” value (1 h, individual mice, 40 mg/kg) is reported as 21.036 µg/g and 16.223 µg/g, the “SHR9146 concentration in Kidney” value (1 h, individual mice, 40 mg/kg) is reported as 18.490 µg/g and 14.219 µg/g and the “SHR9146 concentration in Liver” value (1 h, individual mice, 40 mg/kg) is reported as 26.622 µg/g and 23.393 µg/g. For the same molecule, the “SHR9146 concentration in Lung” value (1 h, individual mice, 40 mg/kg) was 20.029 µg/g and 15.217 µg/g, the “SHR9146 concentration in Pancreas” value (1 h, individual mice, 40 mg/kg) was 22.508 µg/g and 15.532 µg/g and the “SHR9146 concentration in Small intestine” value (1 h, individual mice, 40 mg/kg) was 22.755 µg/g and 23.199 µg/g. The “SHR9146 concentration in Bladder” value (3 h, individual mice, 40 mg/kg) was 10.878 µg/g and 14.604 µg/g and 5.984 µg/g, the “SHR9146 concentration in Kidney” value (3 h, individual mice, 40 mg/kg) was 12.786 µg/g and 17.400 µg/g and 8.011 µg/g and the “SHR9146 concentration in Liver” value (3 h, individual mice, 40 mg/kg) was 20.374 µg/g and 27.066 µg/g and 11.815 µg/g. For the same molecule, the “SHR9146 concentration in Lung” value (3 h, individual mice, 40 mg/kg) was 12.019 µg/g and 16.499 µg/g and 48.938 µg/g, the “SHR9146 concentration in Pancreas” value (3 h, individual mice, 40 mg/kg) was 13.466 µg/g and 17.374 µg/g and 6.520 µg/g and the “SHR9146 concentration in Small intestine” value (3 h, individual mice, 40 mg/kg) was 22.446 µg/g and 12.038 µg/g. The “SHR9146 concentration in Adrenal gland” value (6 h, individual mice, 40 mg/kg) was 4.009 µg/g and 0.427 µg/g and 1.219 µg/g, the “SHR9146 concentration in Bladder” value (6 h, individual mice, 40 mg/kg) was 1.685 μg/g and BLQ and 0.201 μg/g and the “SHR9146 concentration in Brain” value (6 h, individual mice, 40 mg/kg) was “BLQ”. The “SHR9146 concentration in Kidney” value (6 h, individual mice, 40 mg/kg) was 3.007 µg/g and 0.546 µg/g and 0.744 µg/g, the “SHR9146 concentration in Liver” value (6 h, individual mice, 40 mg/kg) was 4.132 µg/g and 0.621 µg/g and 1.090 µg/g and the “SHR9146 concentration in Lung” value (6 h, individual mice, 40 mg/kg) was 2.446 µg/g and 0.717 µg/g and 0.984 µg/g. For the same molecule, the “SHR9146 concentration in Ovary” value (6 h, individual mice, 40 mg/kg) was “BLQ”, the “SHR9146 concentration in Pancreas” value (6 h, individual mice, 40 mg/kg) was 1.674 µg/g and 0.089 µg/g and 0.150 µg/g and the “SHR9146 concentration in Skeletal muscle” value (6 h, individual mice, 40 mg/kg) was “BLQ”. The “SHR9146 concentration in Small intestine” value (6 h, individual mice, 40 mg/kg) was 1.815 µg/g and 0.395 µg/g and 0.288 µg/g, the “SHR9146 concentration in Spleen” value (6 h, individual mice, 40 mg/kg) was “BLQ” and the “SHR9146 concentration in Uterus” value (6 h, individual mice, 40 mg/kg) was “BLQ”. For the same molecule, the “SHR9146 concentration in Whole blood” value (6 h, individual mice, 40 mg/kg) was “BLQ”, the “SHR9146 concentration in Abdominal fat” value (24 h, individual mice) was “BLQ” and the “SHR9146 concentration in Bladder” value (24 h, individual mice) was “BLQ”. The “SHR9146 concentration in Brain” value (24 h, individual mice) was “BLQ”, the “SHR9146 concentration in Heart” value (24 h, individual mice) was “BLQ” and the “SHR9146 concentration in Kidney” value (24 h, individual mice) was “BLQ”. For the same molecule, the “SHR9146 concentration in Ovary” value (24 h, individual mice) was “BLQ”, the “SHR9146 concentration in Pancreas” value (24 h, individual mice) was “BLQ” and the “SHR9146 concentration in Plasma” value (24 h, individual mice) was “BLQ”. For the same molecule, the “SHR9146 concentration in Skeletal muscle” value (24 h, individual mice) was “BLQ”, the “SHR9146 concentration in Skin” value (24 h, individual mice) was “BLQ” and the “SHR9146 concentration in Small intestine” value (24 h, individual mice) was “BLQ”. The “SHR9146 concentration in Spleen” value (24 h, individual mice) was “BLQ”, the “SHR9146 concentration in Uterus” value (24 h, individual mice) was “BLQ” and the “SHR9146 concentration in Whole blood” value (24 h, individual mice) was “BLQ”. For the same molecule, the “SHR9146 concentration in thyroid gland” value (24 h, individual mice) was “BLQ”, the “SHR9146 concentration in Adrenal gland” value [1] was 0.185 µg/g and the “SHR9146 concentration in Liver” value [1] was “BLQ and 0.058 μg/g”. For the same molecule, the “SHR9146 concentration in Lung” value [1] was 0.151 µg/g and 0.191 µg/g, the concentration at 1 h (abdominal fat, 40 mg/kg, 1 h, Mean (n=3), read-out: SHR9146 concentration in Abdominal fat) was 13500 ng/g and the concentration at 1 h (abdominal fat, 40 mg/kg, 1 h, individual mice, read-out: SHR9146 concentration in Abdominal fat) was 11600 ng/g. It also gave a concentration at 3 h (abdominal fat, 40 mg/kg, 3 h, Mean (n=3), read-out: SHR9146 concentration in Abdominal fat) of 8930 ng/g, a concentration at 6 h (abdominal fat, 40 mg/kg, 6 h, Mean (n=3), read-out: SHR9146 concentration in Abdominal fat) of 416 ng/g and a concentration at 1 h (adrenal gland, 40 mg/kg, 1 h, Mean (n=3), read-out: SHR9146 concentration in Adrenal gland) of 36600 ng/g. The concentration at 1 h (adrenal gland, 40 mg/kg, 1 h, individual mice, read-out: SHR9146 concentration in Adrenal gland) was 31300 ng/g, the concentration at 3 h (adrenal gland, 40 mg/kg, 3 h, Mean (n=3), read-out: SHR9146 concentration in Adrenal gland) was 27800 ng/g and the concentration at 6 h (adrenal gland, 40 mg/kg, 6 h, Mean (n=3), read-out: SHR9146 concentration in Adrenal gland) was 1880 ng/g. For the same molecule, the concentration at 24 h (adrenal gland, 40 mg/kg, 24 h, Mean (n=3), read-out: SHR9146 concentration in Adrenal gland) was 195 ng/g, the concentration at 24 h (adrenal gland, 40 mg/kg, 24 h, individual mice, read-out: SHR9146 concentration in Adrenal gland) was 214 ng/g and the concentration at 1 h (bladder, 40 mg/kg, 1 h, Mean (n=3), read-out: SHR9146 concentration in Bladder) was 16800 ng/g. For the same molecule, the concentration at 1 h (bladder, 40 mg/kg, 1 h, individual mice, read-out: SHR9146 concentration in Bladder) was 13200 ng/g, the concentration at 3 h (bladder, 40 mg/kg, 3 h, Mean (n=3), read-out: SHR9146 concentration in Bladder) was 10500 ng/g and the concentration at 6 h (bladder, 40 mg/kg, 6 h, Mean (n=3), read-out: SHR9146 concentration in Bladder) was 629 ng/g. It also gave a concentration at 1 h (brain, 40 mg/kg, 1 h, Mean (n=3), read-out: SHR9146 concentration in Brain) of 2370 ng/g, a concentration at 1 h (brain, 40 mg/kg, 1 h, individual mice, read-out: SHR9146 concentration in Brain) of 2190 ng/g and a concentration at 3 h (brain, 40 mg/kg, 3 h, Mean (n=3), read-out: SHR9146 concentration in Brain) of 1560 ng/g. For the same molecule, the concentration at 6 h (brain, 40 mg/kg, 6 h, Mean (n=3), read-out: SHR9146 concentration in Brain) was 87 ng/g, the concentration at 6 h (brain, 40 mg/kg, 6 h, individual mice, read-out: SHR9146 concentration in Brain) was 261 ng/g and the concentration at 1 h (heart, 40 mg/kg, 1 h, Mean (n=3), read-out: SHR9146 concentration in Heart) was 9540 ng/g. The concentration at 1 h (heart, 40 mg/kg, 1 h, individual mice, read-out: SHR9146 concentration in Heart) was 7410 ng/g, the concentration at 3 h (heart, 40 mg/kg, 3 h, Mean (n=3), read-out: SHR9146 concentration in Heart) was 7040 ng/g and the concentration at 6 h (heart, 40 mg/kg, 6 h, Mean (n=3), read-out: SHR9146 concentration in Heart) was 334 ng/g. For the same molecule, the concentration at 1 h (kidney, 40 mg/kg, 1 h, Mean (n=3), read-out: SHR9146 concentration in Kidney) was 15300 ng/g.
